The values below come from patent US20050187240A1, “Aaptamine and isoaaptamine and structural modifications thereof” (The Arizona Board of Regents, Acting for and on behalf of …, priority 2004, published 2005).

For orientation: inhibition means how much of the control response was suppressed. Usually pIC50 stands for the IC50 on a negative log10 scale, so that one unit is a factor of ten.

Each structure is given as a SMILES string. pIC50: −log10 of the molar value. Converted amounts (≈) assume the structure as drawn. Where a name gives a salt, the structure may show the parent alone. Read-outs that look alike come from different tables or passages of the source. Where only a bound is given, the exact number is not on record here.

The subject of data set [1] is Micrococcus luteus. As to the kind of experiment: Broth microdilution susceptibility assay, Micrococcus luteus. Type of data set: cell-based.
The test system of data set [2] is CNS SF-295. As to the kind of experiment: Cancer cell growth inhibition, CNS SF-295. The format is cell-based, human. The following applies: Table 1. The source says:
(§1) (Boyd, M. R., Cancer: Principles and Practices of Oncology Updates; […], et al., Eds; Lippincott: Philadelphia, 1989, Vol. 10, No. 3, pp. 1-12; Boyd, et al., Drug Development Research 1995, 34, 91-109; Boyd, M. R., et al. Cytotoxic Anticancer Drugs: Models and Concepts for Drug Discovery and Development; Valeriote, A., et al., Eds, Kluwer Academic Publishers: Amsterdam, 1992, pp. 11-34.)

Data set [3] deals with CNS SF-268. Briefly: Cancer cell growth inhibition, CNS SF-268. Type of data set: cell-based, human. The conditions noted are these: Homo sapiens; Table 3; CNS SF-268; read-out: Cancer cell growth inhibitory ED50. As for the experimental part: (§2) Biology The cancer cell growth inhibitory properties were examined using the murine P388 lymphocytic leukemia cell line and a selection of human cancer cell lines.
(§3) All of the synthetic products were evaluated against a minipanel of human cancer cell lines, the murine P388 lymphocytic leukemia cell line and a selection of microorganisms.

The test system of data set [4] is melanoma SK-MEL-5. As to the kind of experiment: Cancer cell growth inhibition, melanoma SK-MEL-5. The format is cell-based, human. The following applies: Table 1.
Excerpt: as §1

The target of data set [5] is PKC alpha (Homo sapiens, UniProt P17252). As to the kind of experiment: Inhibition of [3H]phorbol 12,13-dibutyrate binding to PKC alpha. The following applies: 30 μM compound; read-out: inhibition of [3H]phorbol 12,13-dibutyrate binding to PKC alpha. The method, boiled down:
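Compounds tested at a single 30 μM concentration for displacement of [3H]phorbol 12,13-dibutyrate binding to PKC alpha, reported as percent inhibition. Triplicate measurements in one or three independent experiments depending on compound.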

Data set [6] concerns colon KM 20L2. As to the kind of experiment: Cancer cell growth inhibition, colon KM 20L2. The format is cell-based, human. The following applies: Homo sapiens, colon KM 20L2. The method, boiled down: (§4)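 Growth inhibition in murine P388 leukemia and human cancer cell line panels (Arizona State University minipanel and NCI 60-cell screen).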
In data set [7] the test system is Escherichia coli. As to the kind of experiment: Broth microdilution susceptibility assay, Escherichia coli. The format is cell-based. The following applies: for MIC: Table 4, read-out: Range of minimum inhibitory concentration. In general terms: Dilution methods test growth across graded concentrations, often in twofold steps.
The nature of data set [8]: Stability of the substance (observation). Type of data set: physicochemical. The source says:
When newly isolated, isoaaptamine (2) appears as a yellow colored powder that rapidly changes to dark green and finally brown or black, presumably due to air oxidation. […] For that purpose, isoaaptamine (2) was first phosphorylated with dibenzylphosphate (Pettit, G. R. et al., Anti-Cancer Drug Design 2000, 15, 203-216; Silverberg, L. J., Tetrahedron Lett. 1996, 37, 771-774). […] Scheme 2 below illustrates the aforementioned synthesis method. [drawing 17] Biology

The test system of data set [9] is Enterobacter cloacae. As to the kind of experiment: Broth microdilution susceptibility assay, Enterobacter cloacae. Type of data set: cell-based. The following applies: for MIC: Table 4, read-out: Range of minimum inhibitory concentration.
Data set [10] concerns Stenotrophomonas maltophilia. As to the kind of experiment: Broth microdilution susceptibility assay, Stenotrophomonas maltophilia. Type of data set: cell-based. The conditions noted are these: for MIC: Table 4, Stenotrophomonas maltophil, read-out: Range of minimum inhibitory concentration.
The test system of data set [11] is pancreas BXPC-3. As to the kind of experiment: Cancer cell growth inhibition, pancreas BXPC-3. Type of data set: cell-based, human. The following applies: Homo sapiens; Table 3; pancreas BXPC-3; read-out: Cancer cell growth inhibitory ED50. As for the experimental part: as §2, §3
In data set [12] the test system is Cryptococcus neoformans. Briefly: Broth microdilution susceptibility assay, Cryptococcus neoformans. Type of data set: cell-based.
The subject of data set [13] is renal A498. Briefly: Cancer cell growth inhibition, renal A498. Type of data set: cell-based, human. The following applies: Table 1.
Excerpt: as §1

In data set [14] the test system is Staphylococcus aureus. As to the kind of experiment: Broth microdilution susceptibility assay, Staphylococcus aureus. Type of data set: cell-based.
In data set [15] the test system is murine P388 lymphocytic leukemia cell line. As to the kind of experiment: Cancer cell growth inhibition, murine P388 lymphocytic leukemia cell line. The format is cell-based. The conditions noted are these: for IC50: Mus musculus. The method, boiled down: as §4
In data set [16] the test system is ovary OVCAR-3. Briefly: Cancer cell growth inhibition, ovary OVCAR-3. The format is cell-based, human. The conditions noted are these: Table 1.
Excerpt: as §1

In data set [17] the test system is lung NCI-H460. As to the kind of experiment: Cancer cell growth inhibition, lung NCI-H460. The format is cell-based, human. The conditions noted are these: Homo sapiens, lung NCI-H460. The method, boiled down:
as §4

The test system of data set [18] is Neisseria gonorrhoeae. Briefly: Broth microdilution susceptibility assay, Neisseria gonorrhoeae. Type of data set: cell-based.
The test system of data set [19] is Candida albicans. Briefly: Broth microdilution susceptibility assay, Candida albicans. Type of data set: cell-based. The following applies: for MIC: Table 4, read-out: Range of minimum inhibitory concentration.
The test system of data set [20] is Enterococcus faecalis. As to the kind of experiment: Broth microdilution susceptibility assay, Enterococcus faecalis. Type of data set: cell-based.
For data set [21], the system named is tubulin. As to the kind of experiment: Tubulin polymerization (assembly) inhibition. Type of data set: biochemical. The following applies: b138 series; 20 minutes incubation at 30° C.; read-out: IC50 for inhibition of extent of tubulin assembly. As for the experimental part:
Only minimal inhibitory activity was observed. While compounds 15 and 8 did inhibit the rate of polymerization by over 50% at 40 μM (the highest concentration examined), an IC50 value for inhibition of assembly extent was obtained only for compound 18. […] Thus, it seems unlikely that the cytotoxic mechanism for these aaptamine analogs derives from an interaction with tubulin.
A number of the aaptamine derivatives whose synthesis is described here were examined for potential effects on tubulin assembly. These were compounds 2, 4, 5, 9a-c, and 10a-d. […] For comparison, in experiments performed contemporaneously, the potent colchicine site drug combretastatin A-4 yielded an IC50 value of about 2 μM.

For data set [22], the system named is prostrate DU-145. Briefly: Cancer cell growth inhibition, prostate DU-145. Type of data set: cell-based, human. The following applies: Homo sapiens; Table 3; prostrate DU-145; read-out: Cancer cell growth inhibitory ED50. Here is the method:
as §2, §3

The subject of data set [23] is Streptococcus pneumoniae. Briefly: Broth microdilution susceptibility assay, Streptococcus pneumoniae. The format is cell-based.
In data set [24] the test system is breast MCF-7. Briefly: Cancer cell growth inhibition, breast MCF-7. The conditions noted are these: Homo sapiens, MCF7; Table 3; breast MCF-7; read-out: Cancer cell growth inhibitory ED50. Type of data set: cell-based, human. As for the experimental part: as §2, §3
The test system of data set [25] is murine P388 lymphocytic leukemia cell line and a selection of human cancer cell lines. As to the kind of experiment: Cancer cell growth inhibition, P388 and human cancer cell line panel (summary in words). The format is cell-based.
Excerpt: as §2

Data set [26] can be described thus: Antimicrobial activity in the presence of human serum. The format is cell-based. The source says: The antimicrobial activity of phenols 15 and 18 in the presence of human serum was also investigated.
Where [27] appears, read: Table 2, read-out: Range of minimum inhibitory concentration.
The mark [28] stands for this setting: Table 1, read-out: Cancer Cell Line Results ED50.
Where [29] appears, read: Table 3, read-out: Cancer cell growth inhibitory ED50.
Where [30] appears, read: P388, Table 3, leukemia P-388, read-out: Cancer cell growth inhibitory ED50.
[31] abbreviates: Table 4, read-out: Range of minimum inhibitory concentration.

On to `COc1cc2ccnc3c2c(c1O)N(C)C=C3` [Compound 2, isoaaptamine], for which the MIC is 32 to 64 µg/mL (≈ 140 to 280 µM) in [1] (setting [27]); 64 µg/mL (≈ 280 µM) in data set [12] (setting [27]); 16 to 32 µg/mL (≈ 70.1 to 140 µM) in data set [14] (setting [27]); less than 0.5 µg/mL in data set [18] (setting [27]); 32 to 64 µg/mL (≈ 140 to 280 µM) in data set [20] (setting [27]); 8 to 32 µg/mL (≈ 35 to 140 µM) in data set [23] (setting [27]). The “Cancer Cell Line Results ED50” value was determined as 2.60 µg/mL in data set [2], 1.60 µg/mL in [4], 2.20 µg/mL in data set [13] and 1.20 µg/mL in data set [16]. The IC50 in [3] is 2.2 µg/mL (≈ 9.64 µM); in data set [6] (setting [28]) it was 2.3 µg/mL (≈ 10.1 µM); in [6] (setting [29]) it was greater than 10 µg/mL; in data set [11], 4.1 µg/mL (≈ 18 µM); in data set [15] (setting [30]), 1.6 µg/mL (≈ 7.01 µM); in [15] (Table 1, leukemia murine P388, read-out: Cancer Cell Line Results ED50) it was 0.28 µg/mL (≈ 1.23 µM). The IC50 in data set [17] (setting [28]) was found to be 2.4 µg/mL (≈ 10.5 µM); in [17] (setting [29]) it was 2.9 µg/mL (≈ 12.7 µM); in data set [22] it was 3.3 µg/mL (≈ 14.5 µM); in [24] it was 2.2 µg/mL (≈ 9.64 µM). Besides, the inhibition at 30 µM in [5] worked out at 13%. For the same molecule, the “Range of minimum inhibitory concentration” value in data set [7] (Table 2), in data set [9] (Table 2), in [10] (Table 2) and in data set [19] (Table 2) was “* (no inhibition at 64 ug/ml)” each time. Also, in data set [8], the “stability” value is “relatively unstable”. Further, in data set [15] (murine P388), the “P388 ED50” value was determined as 0.28 µg/mL. The pIC50 in [21] was 4.51.
`CN1C=Cc2cc(O)c(O)c3nccc1c23` [Compound 7, 4-Methyl-8,9-dihydroxy-4H-benzo[de][1,6]naphthyridine]: the MIC in data set [1] (setting [31]), in data set [7], in data set [9], in data set [10], in data set [12] (setting [31]) and in [14] (setting [31]) was greater than 64 µg/mL throughout. The MIC in [18] (setting [31]) was 64 µg/mL (≈ 299 µM); in data set [19], greater than 64 µg/mL; in [20] (setting [31]), greater than 64 µg/mL; in [23] (setting [31]), greater than 64 µg/mL. The IC50 is 5.6 µg/mL (≈ 26.1 µM) in [3]; greater than 10 µg/mL in data set [6] (setting [29]); greater than 10 µg/mL in [11]; 2.2 µg/mL (≈ 10.3 µM) in data set [15] (setting [30]); greater than 10 µg/mL in data set [17] (setting [29]); greater than 10 µg/mL in [22]. The IC50 in data set [24] stood at 4.1 µg/mL (≈ 19.1 µM). The “cancer cell growth inhibitory activity” value in data set [25] is “marginal activity”.
`COc1cc2ccnc3c2c(c1OC)N(C)C=C3` [Compound 14, 1-Methyl-8,9-dimethoxy-1H-benzo[de][1,6]naphthyridine trifluoromethane-sulfonate]: the MIC in data set [1] (setting [31]), in [7], in data set [9], in data set [10], in data set [12] (setting [31]) and in [14] (setting [31]) was greater than 64 µg/mL throughout. For the same molecule, the MIC is greater than 64 µg/mL in [18] (setting [31]), greater than 64 µg/mL in [19], greater than 64 µg/mL in data set [20] (setting [31]) and 64 µg/mL (≈ 264 µM) in [23] (setting [31]). Also, the “cancer cell growth inhibitory activity” value in data set [25] is “marginal activity”.
In the case of `Oc1cc2ccnc3c2c(c1O)NC=C3` [Compound 15, 8,9-Dihydroxy-1H-Benzo[de][1,6]naphthyridine hydrobromide], the MIC is 4 µg/mL in data set [1] (setting [31]); 16 to 64 µg/mL in data set [7]; greater than 64 µg/mL in data set [9]; 32 µg/mL in data set [10]; 32 µg/mL in [12] (setting [31]); 4 to 8 µg/mL in data set [14] (setting [31]). For the same molecule, the MIC in data set [18] (setting [31]) is greater than 0.5 µg/mL; in data set [19], 64 µg/mL; in [20] (setting [31]), 8 to 16 µg/mL; in data set [23] (setting [31]) it was 8 µg/mL. Also, the IC50 in data set [3] is 0.8 µg/mL; in [6] (setting [29]), 0.3 µg/mL; in data set [11] it was 0.33 µg/mL; in data set [15] (setting [30]), 0.12 µg/mL; in data set [17] (setting [29]), 0.52 µg/mL; in data set [22], 1.1 µg/mL. For the same molecule, the IC50 in [24] is 0.31 µg/mL. Further, the “minimum inhibitory concentrations in the presence of human serum versus absence of serum” value in [26] is reported as “identical or one 2-fold dilution lower”.
